From ChEMBL document CHEMBL1127566, “Thienyl and thiazolyl acyclic analogues of 5-deazatetrahydrofolic acid” (J Med Chem, 1994)

Columns and labels:
[1] = system: folylpolyglutamate synthase (FPGS); assay: Km of Hog folyl-poly-glutamate synthase (FPGS) relative to aminopterin; set-up: species or system Sus scrofa; conditions: pig, hog folylpolyglutamate synthase (FPGS) enzyme
Sus scrofa = species on record: Sus scrofa; assay: Vmax of Hog folyl-poly-glutamate synthase (FPGS) relative to aminopterin; conditions: pig, in vitro
MCF7 = assay: Ability to inhibit growth of MCF-7 human breast adenocarcinoma in vitro; type: functional, cell-based
MOLT-4 = assay: Ability to inhibit [3H]methotrexate transport into MOLT-4 cells in vitro; type: functional, cell-based; conditions: Homo sapiens
CCRF-CEM = assay: In vitro antitumor activity was assessed from rate of cell growth of CCRF/CEM cell line; type: functional, cell-based; conditions: Homo sapiens
[2] = substrate: Nc1nc(N)c(CCCNc2ccc(C(=O)N[C@@H](CCC(=O)O)C(=O)O)s2)c(O)n1; assay: (§1) Vmax of Hog Folyl-polyglutamate synthase relative to aminopterin; conditions: Sus scrofa
[3] = substrate: Nc1nc(N)c(CCCNc2cnc(C(=O)N[C@@H](CCC(=O)O)C(=O)O)s2)c(O)n1; assay: as §1; conditions: Sus scrofa
[4] = substrate: Nc1nc(N)c(CCCNc2ccc(C(=O)N[C@@H](CCC(=O)O)C(=O)O)s2)c(O)n1; assay: (§2) Km of Hog Folyl-polyglutamate synthase relative to aminopterin; conditions: Sus scrofa
[5] = substrate: Nc1nc(N)c(CCCNc2cnc(C(=O)N[C@@H](CCC(=O)O)C(=O)O)s2)c(O)n1; assay: as §2; conditions: Sus scrofa

IC50 (MCF7) [nM]	IC50 (MOLT-4) [nM]	IC50 (CCRF-CEM) [nM]	Molecule	further results
18	1500	15	Nc1nc2c(c(=O)[nH]1)C[C@@H](CCc1ccc(C(=O)N[C@@H](CCC(=O)O)C(=O)O)cc1)CN2 [LOMETREXOL]	Km [1]: 17.5 µM; Vmax (Sus scrofa): 97%
		2.3	Nc1nc(O)c2c(n1)NCC(CCc1ccc(C(=O)N[C@@H](CCC(=O)O)C(=O)O)s1)C2 (stereo partly specified)	
37			Nc1nc(N)c(CCCNc2ccc(C(=O)N[C@@H](CCC(=O)O)C(=O)O)cc2)c(O)n1	
		27	Nc1nc(O)c2c(n1)NCC(CCc1ccc(C(=O)N[C@@H](CCC(=O)O)C(=O)O)o1)C2 (stereo partly specified)	
38	1600		Nc1nc(N)c(CCCNc2ccc(C(=O)N[C@@H](CCC(=O)O)C(=O)O)s2)c(O)n1	
4	800		Nc1nc(N)c(CCCNc2cnc(C(=O)N[C@@H](CCC(=O)O)C(=O)O)s2)c(O)n1	
			Folylpolyglutamate synthase, mitochondrial (Homo sapiens), Q05932 (protein) MSRARSHLRAALFLAAASARGITTQVAARRGLSAWPVPQEPSMEYQDAVRMLNTLQTNAGYLEQVKRQRGDPQTQLEAMELYLARSGLQVEDLDRLNIIHVTGTKGKGSTCAFTECILRSYGLKTGFFSSPHLVQVRERIRINGQPISPELFTKYFWRLYHRLEETKDGSCVSMPPYFRFLTLMAFHVFLQEKVDLAVVEVGIGGAYDCTNIIRKPVVCGVSSLGIDHTSLLGDTVEKIAWQKGGIFKQGVPAFTVLQPEGPLAVLRDRAQQISCPLYLCPMLEALEEGGPPLTLGLEGEHQRSNAALALQLAHCWLQRQDRHGAGEPKASRPGLLWQLPLAPVFQPTSHMRLGLRNTEWPGRTQVLRRGPLTWYLDGAHTASSAQACVRWFRQALQGRERPSGGPEVRVLLFNATGDRDPAALLKLLQPCQFDYAVFCPNLTEVSSTGNADQQNFTVTLDQVLLRCLEHQQHWNHLDEEQASPDLWSAPSPEPGGSASLLLAPHPPHTCSASSLVFSCISHALQWISQGRDPIFQPPSPPKGLLTHPVAHSGASILREAAAIHVLVTGSLHLVGGVLKLLEPALSQ	Vmax [2]: 118%; Vmax [3]: 99.3%; Km [4]: 9.3 µM; Km [5]: 8.6 µM
